# According to ChEMBL document CHEMBL1221165, “Actin is the primary cellular receptor of bistramide A” (Nat Chem Biol, 2005):
# Active and inactive are the calls of the source. The calls are words filed in the database; no cut-off is given here.
# What was measured:
# [1] = (§1) Binding affinity to rabbit skeletal muscle monomeric actin by isothermal calorimetric method; type: tissue-based, Oryctolagus cuniculus, Muscle tissue
# [2] = Inhibition of actin polymerization
# [3] = system: RBL-2H3; assay: Induction of GFP-PKCdelta translocation from cytoplasm to nuclear in RBL2H3 cells at 200 nM over 30 mins by fluorescent imaging; type: functional, cell-based; details: Rattus norvegicus
# [4] = system: RBL-2H3; assay: Induction of GFP-PKCdelta translocation from cytoplasm to plasma membrane in RBL2H3 cells at 200 nM over 30 mins by fluorescent imaging; type: functional, cell-based; details: Rattus norvegicus
# [5] = molecular target: T1, Protein kinase C delta type (Homo sapiens, UniProt Q05655); assay: Induction of human recombinant PKCdelta assessed as phosphorylation of amphiphilic peptide substrate at 0.1 uM in presence of 10 uM phosphatidylserine relative to control
# Target sequence in this assay (Q05655 whole entry, looked up): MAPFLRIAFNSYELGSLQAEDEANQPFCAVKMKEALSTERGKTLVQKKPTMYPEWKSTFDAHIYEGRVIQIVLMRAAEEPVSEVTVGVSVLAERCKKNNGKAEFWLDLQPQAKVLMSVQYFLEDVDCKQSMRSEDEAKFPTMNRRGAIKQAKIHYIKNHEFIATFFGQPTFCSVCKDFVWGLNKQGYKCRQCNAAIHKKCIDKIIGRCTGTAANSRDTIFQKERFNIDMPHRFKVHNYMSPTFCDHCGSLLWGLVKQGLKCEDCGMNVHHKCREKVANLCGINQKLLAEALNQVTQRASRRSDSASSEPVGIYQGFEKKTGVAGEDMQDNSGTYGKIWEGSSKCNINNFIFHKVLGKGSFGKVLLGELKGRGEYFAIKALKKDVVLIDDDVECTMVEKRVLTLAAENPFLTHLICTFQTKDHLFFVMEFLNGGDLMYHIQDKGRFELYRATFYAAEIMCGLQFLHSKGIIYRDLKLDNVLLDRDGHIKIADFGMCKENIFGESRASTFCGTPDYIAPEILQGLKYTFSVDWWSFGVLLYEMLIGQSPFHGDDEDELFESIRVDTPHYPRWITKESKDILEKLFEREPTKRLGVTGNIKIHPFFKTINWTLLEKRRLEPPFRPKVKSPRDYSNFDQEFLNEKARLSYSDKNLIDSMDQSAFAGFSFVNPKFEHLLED
# [6] = molecular target: T1, Protein kinase C delta type; assay: Induction of human recombinant PKCdelta assessed as phosphorylation of amphiphilic peptide substrate at 1 uM in presence of 10 uM phosphatidylserine relative to control
# Target sequence in this assay (Q05655 whole entry, looked up): as above
# [7] = molecular target: Protein kinase C delta type (Rattus norvegicus) (UniProt P09215); assay: Induction of rat recombinant PKCdelta activity
# Chain of Protein kinase C delta type (Rattus norvegicus) (P09215 whole entry): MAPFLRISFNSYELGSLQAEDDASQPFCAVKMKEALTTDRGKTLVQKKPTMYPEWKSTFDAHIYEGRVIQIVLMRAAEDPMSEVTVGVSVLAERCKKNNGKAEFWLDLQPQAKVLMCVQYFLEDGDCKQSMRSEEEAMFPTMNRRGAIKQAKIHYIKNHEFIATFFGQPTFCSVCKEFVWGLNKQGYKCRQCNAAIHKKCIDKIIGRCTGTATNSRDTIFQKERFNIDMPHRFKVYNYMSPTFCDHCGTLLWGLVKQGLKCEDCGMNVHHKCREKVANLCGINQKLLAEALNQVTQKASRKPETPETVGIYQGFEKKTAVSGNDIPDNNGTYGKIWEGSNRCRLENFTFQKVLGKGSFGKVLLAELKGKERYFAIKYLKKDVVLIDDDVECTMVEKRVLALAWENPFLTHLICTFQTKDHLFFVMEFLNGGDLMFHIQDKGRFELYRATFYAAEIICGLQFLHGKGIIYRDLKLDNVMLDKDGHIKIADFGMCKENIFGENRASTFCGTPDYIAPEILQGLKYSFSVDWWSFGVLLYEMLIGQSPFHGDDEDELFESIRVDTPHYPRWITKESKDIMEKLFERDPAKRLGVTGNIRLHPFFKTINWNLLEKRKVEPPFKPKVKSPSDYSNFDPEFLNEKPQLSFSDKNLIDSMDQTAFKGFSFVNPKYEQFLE
# [8] = molecular target: T1, Protein kinase C delta type; assay: Displacement of [3H]PDBu from human recombinant PKCdelta by competitive binding assay
# Target sequence in this assay (Q05655 whole entry): as the sequence (Q05655 whole entry, looked up) above
# [9] = system: RBL-2H3; assay: Induction of GFP-PKCdelta translocation from cytoplasm to nuclear in RBL2H3 cells at 5 uM over 30 mins by fluorescent imaging; type: functional, cell-based; details: Rattus norvegicus
# [10] = system: MCF7; assay: Cell cycle arrest in human MCF7 cells assessed as accumulation at G0/G1 phase at 1 uM after 48 hrs (Rbv = 74%); type: functional
# [11] = system: MCF7; assay: Cell cycle arrest in human MCF7 cells assessed as accumulation at G2/M phase at 1 uM after 48 hrs (Rbv = 7%); type: functional
# [12] = system: PC-3; assay: Cell cycle arrest in human PC3 cells assessed as accumulation at G1 phase at 1 uM after 48 hrs (Rbv = 58%); type: functional
# [13] = system: PC-3; assay: Cell cycle arrest in human PC3 cells assessed as accumulation at S phase at 1 uM after 48 hrs (Rbv = 18%); type: functional
# [14] = system: PC-3; assay: Cell cycle arrest in human PC3 cells assessed as accumulation at G2/M phase at 1 uM after 48 hrs (Rbv = 19%); type: functional
# [15] = system: HL-60; assay: Cell cycle arrest in human HL60 cells assessed as accumulation at G1 phase at 0.5 uM after 48 hrs (Rbv = 38%); type: functional
# [16] = system: HL-60; assay: Cell cycle arrest in human HL60 cells assessed as accumulation at S phase at 0.5 uM after 48 hrs (Rbv = 44%); type: functional
# [17] = system: HL-60; assay: Cell cycle arrest in human HL60 cells assessed as accumulation at G2/M phase at 0.5 uM after 48 hrs (Rbv = 11%); type: functional
# [18] = system: MCF7; assay: Cell cycle arrest in human MCF7 cells assessed as accumulation at G1 phase at 1 uM after 48 hrs (Rbv = 73%); type: functional
# [19] = system: MCF7; assay: Cell cycle arrest in human MCF7 cells assessed as accumulation at S phase at 1 uM after 48 hrs (Rbv = 18%); type: functional
# [20] = system: CA46; assay: Cell cycle arrest in human CA46 cells assessed as accumulation at G0/G1 phase at 1 uM after 48 hrs; type: functional, cell-based
# [21] = system: CA46; assay: Cell cycle arrest in human CA46 cells assessed as accumulation at G2/M phase at 1 uM after 48 hrs; type: functional, cell-based
# [22] = system: CA46; assay: Antiproliferative activity against human CA46 cells assessed as binucleated cells at 1 uM after 48 hrs by visual examination (Rbv = 6%); type: functional
# [23] = system: CA46; assay: Antiproliferative activity against human CA46 cells assessed as mitotic cells at 1 uM after 48 hrs by visual examination (Rbv = 3%); type: functional
# [24] = system: A549; assay: Dissolution of filamentous actin in human A549 cells after 1 hr by using FITC-phallodin staining by fluorescent microscopy; type: cell-based
# [25] = system: A549; assay: Dissolution of filamentous actin in human A549 cells at 50 to 150 nM by using FITC-phallodin staining by fluorescent microscopy; type: cell-based; details: TDE = time-dependent effect
# [26] = system: PC-3; assay: Dissolution of filamentous actin in human PC3 cells at 20 nM within 15 mins by using FITC-phallodin staining by fluorescent microscopy; type: functional, cell-based
# [27] = system: CHO-K1; assay: Dissolution of filamentous actin in chinese hamster CHOK1 cells at 20 nM within 15 mins by using FITC-phallodin staining by fluorescent microscopy; type: cell-based; details: Cricetulus griseus
# [28] = system: PtK2; assay: Dissolution of filamentous actin in […] PtK2 cells at 20 nM within 15 mins by using FITC-phallodin staining by fluorescent microscopy; type: cell-based
# [29] = system: A549; assay: Inhibition of globular actin polymerization at steady state in human A549 cells assessed as change in fluorescence intensity; type: cell-based
# [30] = system: A549; assay: Increase in dissolution of filamentous actin in human A549 cells at 120 to 450 nM by using FITC-phallodin staining by fluorescent microscopy; type: cell-based
# [31] = Depolymerization of Mg2+ filamentous actin in human A549 cells at 450 nM by using FITC-phallodin staining; type: cell-based
# [32] = Depolymerization of Ca2+ filamentous actin in human A549 cells at 450 nM by using FITC-phallodin staining; type: cell-based
# [33] = species: Oryctolagus cuniculus; assay: as §1; type: tissue-based; details: Muscle tissue
# [34] = Binding affinity to rabbit skeletal muscle globular actin by isothermal calorimetric method; type: tissue-based, Oryctolagus cuniculus, Muscle tissue
# [35] = system: HL-60; assay: Cytotoxicity against human HL60 cells assessed as growth inhibition after 48 hrs; type: functional; details: HL-60, 48 h
# [36] = system: HL-60; assay: Cytotoxicity against human HL60 cells assessed as cell viability after 48 hrs; type: functional, cell-based; details: HL-60, 48 h
# [37] = system: A549; assay: Cytotoxicity against human A549 cells assessed as growth inhibition after 48 hrs; type: functional; details: A549, 48 h
# [38] = system: A549; assay: Cytotoxicity against human A549 cells assessed as cell viability after 48 hrs; type: functional, cell-based; details: A549, 48 h
# [39] = system: PC-3; assay: Cytotoxicity against human PC3 cells assessed as growth inhibition after 48 hrs; type: functional; details: PC-3, 48 h
# [40] = system: PC-3; assay: Cytotoxicity against human PC3 cells assessed as cell viability after 48 hrs; type: functional, cell-based; details: PC-3, 48 h
# [41] = system: HCT-116; assay: Cytotoxicity against human HCT116 cells assessed as growth inhibition after 48 hrs; type: functional; details: HCT-116, 48 h
# [42] = system: HCT-116; assay: Cytotoxicity against human HCT116 cells assessed as cell viability after 48 hrs; type: functional, cell-based; details: HCT-116, 48 h
structure (smiles),measurement,setting,value
C/C1=C/C(=O)O[C@@H]2C[C@@H](CC[C@H](C)/C=C\C=C\CC1)O[C@@](O)([C@@H]1CSC(=O)N1)C2 [LATRUNCULIN A],Kd,[1],0.17 µM
same,Kd,[2],0.2 µM
CCC/C=C/C=C/C(=O)O[C@H]1/C(=C/C(=O)OC)C[C@H]2C[C@H]([C@@H](C)O)OC(=O)C[C@H](O)C[C@@H]3C[C@H](OC(C)=O)C(C)(C)[C@](O)(C[C@@H]4C/C(=C/C(=O)OC)C[C@H](/C=C/C(C)(C)[C@]1(O)O2)O4)O3,Activity,[3],Active
same,Activity,[4],Active
C/C=C/C(=O)C[C@H]1CC[C@H](C)[C@H](CC(=O)NC[C@H](O)[C@H](C)C(=O)NCCC[C@H]2O[C@@]3(CCC[C@H](CC[C@H](C)/C=C(\C)[C@H](C)O)O3)CC[C@@H]2C)O1 [BISTRAMIDE A],fold change (FC),[5],4.5
same,fold change (FC),[6],3.8
same,Activity,[7],inactive
same,Ki,[8],27 µM
same,Activity,[9],inactive
same,Activity,[10],33%
same,Activity,[11],38%
same,Activity,[12],37%
same,Activity,[13],14%
same,Activity,[14],43%
same,Activity,[15],18%
same,Activity,[16],48%
same,Activity,[17],27%
same,Activity,[18],33%
same,Activity,[19],24%
same,Activity,[20],Active
same,Activity,[21],Active
same,Activity,[22],48%
same,Activity,[23],4%
same,Activity,[24],Dose-dependent effect
same,Activity,[25],tde
same,Activity,[26],Active
same,Activity,[27],Active
same,Activity,[28],Active
same,inhibition,[29],Dose-dependent effect
same,Activity,[30],Active
same,Activity,[31],Active
same,Activity,[32],Active
same,Ka,[33],1.46 ×10⁸ /M
same,Kd,[34],0.007 µM
same,GI50,[35],0.2 µM
same,IC50,[36],> 1 µM
same,GI50,[37],0.013 µM
same,IC50,[38],0.063 µM
same,GI50,[39],0.005 µM
same,IC50,[40],0.107 µM
same,GI50,[41],0.2 µM
same,IC50,[42],0.437 µM
